Reference: patent US10238670B2, “9-aminomethyl minocycline compounds and methods of use thereof in urinary tract infection (UTI) treatment” (Paratek Pharmaceuticals, Inc., priority 2016, dated 2019)

Assay: Phase 1b study, investigator's assessment of clinical response (EOT, PTE)
Format: in vivo, human
Description: b) Investigator's Assessment of Clinical Response Investigator's Assessment of Clinical Response at EOT
The EOT visit was conducted on Day 6. This evaluation was also conducted for any prematurely withdrawn subject. The following assessments were performed at the EOT visit: subject assessment of UTI signs and symptoms severity, urine culture and leukocyte esterase dipstick test or microscopic examination, physical examination, vital signs, 12-lead ECG, hematology and serum chemistry, serum pregnancy test (all subjects) and investigator's assessment of clinical response. Subjects, who discontinued study treatment before completing the study, and those who prematurely withdrew from the study for any reason, were scheduled for a visit as soon as possible, at which time all of the assessments listed for the EOT visit were performed.
It was determined whether the subject met the criteria of 1 of the following clinical outcomes: • Clinical Success: Resolution of signs and symptoms at the EOT visit and no use of additional antimicrobial therapy. • Clinical Failure: No apparent response to therapy, persistence of signs and symptoms of infection at the EOT visit, or use of additional antimicrobial therapy for the current infection. • Indeterminate: EOT visit not completed. Investigator's Assessment of Clinical Response at PTE
The PTE visit was conducted 5 to 9 days after the subject's last day of therapy. This evaluation was also conducted for any prematurely withdrawn subject. The following assessments were performed at the PTE visit: urine culture and leukocyte esterase dipstick test or microscopic examination, physical examination, vital signs, hematology, serum chemistry, serum pregnancy test (all subjects), and investigator's assessment of clinical response.
It was determined whether the subject met the criteria of 1 of the following clinical outcomes: • Clinical Success: Resolution of signs and symptoms at the PTE visit and no use of additional antimicrobial therapy. • Clinical Failure: No apparent response to therapy, persistence of signs and symptoms of infection, or reappearance of signs and symptoms at or before the PTE visit, or use of additional antimicrobial therapy for the current infection. • Indeterminate: PTE visit not completed.
Investigator's assessment of clinical response at the EOT and PTE visits with outcomes of Clinical Success, Clinical Failure or Indeterminate as defined above. Subjects who were a clinical failure at an earlier time point were considered a clinical failure at subsequent time points. The number and percentage of subjects with an Investigator's assessment of success, failure and indeterminate were presented for EOT and PTE visits by treatment group.

CN(C)c1cc(CNCC(C)(C)C)c(O)c2c1C[C@H]1C[C@H]3[C@H](N(C)C)C(O)=C(C(N)=O)C(=O)[C@@]3(O)C(O)=C1C2=O [Compound 1, 9-[(2,2-dimethyl-propylamino)-methyl]-minocycline]
Reason for Clinical Failure: Persistence of signs and symptoms of infection at or before current visit (EOT, IV_PO300): 0 (0.0) n (%)
Clinical Failure (EOT, IV_PO300 (N = 11)): 0 (0.0) n (%)
Clinical Success (EOT, IV_PO300 (N = 11)): 10 (90.9) n (%)
Indeterminate (EOT, IV_PO300 (N = 11)): 1 (9.1) n (%)
Reason for Clinical Failure: Persistence of signs and symptoms of infection at or before current visit (EOT, PO300): 0 (0.0) n (%)
Clinical Failure (EOT, PO300 (N = 10)): 0 (0.0) n (%)
Clinical Success (EOT, PO300 (N = 10)): 10 (100.0) n (%)
Indeterminate (EOT, PO300 (N = 10)): 0 (0.0) n (%)
Reason for Clinical Failure: Persistence of signs and symptoms of infection at or before current visit (EOT, PO450): 1 (100.0) n (%)
Clinical Failure (EOT, PO450 (N = 10)): 1 (10.0) n (%)
Clinical Success (EOT, PO450 (N = 10)): 9 (90.0) n (%)
Indeterminate (EOT, PO450 (N = 10)): 0 (0.0) n (%)
Reason for Clinical Failure: Persistence of signs and symptoms of infection at or before current visit (PTE, IV_PO300): 0 (0.0) n (%)
Reason for Clinical Failure: Use of additional systemic antimicrobial therapy for the current infection (PTE, IV_PO300): 0 (0.0) n (%)
Clinical Failure (PTE, IV_PO300 (N = 11)): 0 (0.0) n (%)
Clinical Success (PTE, IV_PO300 (N = 11)): 11 (100.0) n (%)
Indeterminate (PTE, IV_PO300 (N = 11)): 0 (0.0) n (%)
Reason for Clinical Failure: Persistence of signs and symptoms of infection at or before current visit (PTE, PO300): 2 (100.0) n (%)
Reason for Clinical Failure: Use of additional systemic antimicrobial therapy for the current infection (PTE, PO300): 0 (0.0) n (%)
Clinical Failure (PTE, PO300 (N = 10)): 2 (20.0) n (%)
Clinical Success (PTE, PO300 (N = 10)): 7 (70.0) n (%)
Indeterminate (PTE, PO300 (N = 10)): 0 (0.0) n (%)
Reason for Clinical Failure: Persistence of signs and symptoms of infection at or before current visit (PTE, PO450): 1 (50.0) n (%)
Reason for Clinical Failure: Use of additional systemic antimicrobial therapy for the current infection (PTE, PO450): 1 (50.0) n (%)
Clinical Failure (PTE, PO450 (N = 10)): 2 (20.0) n (%)
Clinical Success (PTE, PO450 (N = 10)): 8 (80.0) n (%)
Indeterminate (PTE, PO450 (N = 10)): 0 (0.0) n (%)
